# Experimental data: the NIST ThermoML archive (doi:10.1021/je100552a)
# ± gives the expanded uncertainty stated by the source.
# How the values were obtained:
# [1] = 101.33 kPa, Liquid; for viscosity: Capillary tube (Ostwald / Ubbelohde) method; for mass density: Vibrating tube method
# [2] = refractive index (Na D-line) (dimensionless); conditions: 101.33 kPa, Liquid, Standard Abbe refractometry
SMILES,viscosity ([1]; 298.15 K) [mPa·s],mass density ([1]; 298.15 K) [kg/m3],viscosity ([1]; 303.15 K) [mPa·s],mass density ([1]; 303.15 K) [kg/m3],viscosity ([1]; 308.15 K) [mPa·s],mass density ([1]; 308.15 K) [kg/m3],viscosity ([1]; 313.15 K) [mPa·s],mass density ([1]; 313.15 K) [kg/m3],refractive index ([2]; 298.15 K),refractive index ([2]; 303.15 K),refractive index ([2]; 308.15 K),refractive index ([2]; 313.15 K)
"ClCCCl [1,2-dichloroethane]",0.7902 ± 0.0064,1246.7 ± 0.4,0.7291 ± 0.006,1240.8 ± 0.4,0.6739 ± 0.0056,1230.5 ± 0.4,0.6441 ± 0.0053,1225.6 ± 0.4,1.4416 ± 0.0005,1.4383 ± 0.0005,1.4336 ± 0.0005,1.4311 ± 0.0005
Clc1ccccc1 [chlorobenzene],0.7568 ± 0.0062,1100.4 ± 0.3,0.7258 ± 0.0059,1094.9 ± 0.3,0.677 ± 0.0056,1089.4 ± 0.3,0.624 ± 0.0052,1083.9 ± 0.3,1.5222 ± 0.0005,1.5192 ± 0.0005,1.5163 ± 0.0005,1.5115 ± 0.0005
Brc1ccccc1 [bromobenzene],1.082 ± 0.0085,1489.4 ± 0.7,1.015 ± 0.008,1481.1 ± 0.7,0.954 ± 0.0076,1475.8 ± 0.7,0.878 ± 0.0071,1467.3 ± 0.6,1.5578 ± 0.0005,1.5538 ± 0.0005,1.5514 ± 0.0005,1.5468 ± 0.0005
